According to ChEMBL document CHEMBL3507680, “University of Dundee, Gates Library screen for HepG2 cell viability”:

assay: Human HepG2 cell viability assay in 384 well format; type: toxicity, cell-based; parameters: dose 125 nL, time 70.5 hour; cytotoxicity at 70.5 h: concentration not given beside the values; conditions: HepG2 cells, read-out: Inhibition

| Structure (SMILES) | cytotoxicity at 70.5 h [%] |
| --- | --- |
| C=C(C)CNc1ccc(C(=O)N(CC)Cc2nccn2C)cn1 | 25.1 |
| COC(=O)C1CCN(c2cc(C)nc(-c3ccncc3)n2)CC1 | -8.27 |
| c1cc(CNCC2CNc3ccnn3C2)cc(N2CCCCC2)n1 (stereo not given) | 25.3 |
| CN(C)S(=O)(=O)c1ccc(-c2nc(C#N)c(NC3CCCCC3)o2)o1 | -9.49 |
| Cc1ccc(NC(=O)c2ccc(=O)n(CC(=O)NC3CCCC3)n2)cc1 | 4.71 |
| Cn1ccnc1CNc1ccc(F)c(N2CCCS2(=O)=O)c1 | 0.314 |
| CCN(Cc1ccco1)C(=O)NCC(C)N1CCc2sccc2C1 (stereo not given) | 13.6 |
| Cc1ccc(C)c(CN(CC(N)=O)C(C)C)c1 | -1.28 |
| Cc1nc(CCNC(=O)c2cc(C(C)C)nn2C)sc1C | -10.1 |
| CC(C)CNC(=O)c1ccc2c(=O)n(-c3ccccc3)cnc2c1 | -5.61 |
| COc1cccc(CC(=O)N2CC[C@@H]3NC(=O)CC[C@@H]32)c1 | -0.893 |
| Fc1cnc(N2CCn3cc(CNc4ccccn4)nc3C2)nc1 | -17.4 |
| CCS(=O)(=O)CCNC(=O)C1(c2cccc(Cl)c2)CC1 | 15.5 |
| CNC(=O)c1cn(C(C)(C)C)c2ncccc12 | -2.43 |
| Cc1cc(N2CCC(C(=O)N(C)C)CC2)nc(-c2ccncc2)n1 | 3.79 |
| CN(Cc1noc(C2CC2)n1)C1CCN(CCn2cccn2)C1 (stereo not given) | -5.95 |
| CCOCc1ncn2c1CN(S(=O)(=O)c1ccc(OC)cc1)CC2 | -9.1 |
| Cc1cnn(C2CN(Cc3nc4cc(Cl)ccc4n3C)C2)c1 | 7.22 |
| Cc1oncc1C(=O)N1CCC2(CCN(Cc3ccccn3)C2=O)C1 (stereo not given) | -0.113 |
| Cc1nc(CNC(=O)N(CCCO)C2CCc3ccccc32)oc1C (stereo not given) | -1.03 |
| c1cc(CN2CCCC3(CCN(CC4CCCO4)CC3)C2)n[nH]1 (stereo not given) | -6.85 |
| O=C(O)C(c1ccc2c(c1)OCO2)N1CCC(C(=O)N2CCCC2)CC1 (stereo not given) | -2.61 |
| Cc1nc(C)n(CC2CCCN2Cc2cn3c(C)cccc3n2)n1 (stereo not given) | -4.2 |

| Structure (SMILES) | cytotoxicity at 70.5 h [%] |
| --- | --- |
| O=C(c1ccn(-c2ccccc2)n1)N1CCCC(n2cccn2)C1 (stereo not given) | -0.6 |
| CN1CCN(c2ccc3ccc(C(=O)N4CCCO4)cn23)CC1 | -9.32 |
| Cc1ncccc1C(=O)Nc1cccc(OCC(F)F)n1 | -8.26 |
| Cc1ccc(CN(C)C(=O)CN2CCCC2c2cnn(C)c2)o1 (stereo not given) | 16.6 |
| O=C(c1ccoc1)N1CCCC1C1CCN(Cc2ccccc2)CC1 (stereo not given) | 23.5 |
| CNC(=O)[C@@H]1C[C@H]2CN(C(=O)c3ccccn3)C[C@H]2N1C(C)C | 15.1 |
| CCc1ncc2c(n1)CN(Cc1cc(C)on1)CC2 | -106 |
| CCN(Cc1cnn(CC)c1)C(=O)Cn1c(=O)c(C)nc2ccccc21 | -17.7 |
| CC(SCc1ccc(Br)c2cccnc12)C(N)=O (stereo not given) | 18.2 |
| O=S(=O)(c1ccccc1)N1CCCN(CCCn2ccnc2)CC1 | -10.3 |
| CS(=O)(=O)N1CCC(Cc2cnc(Br)cn2)C1 (stereo not given) | 45.3 |
| CCN(Cc1cccc2c1OCO2)C(=O)C(C)c1cccnc1 (stereo not given) | 1.7 |
| CCc1nnc(NC(=O)c2c3c(nn2C2CCS(=O)(=O)C2)CCC3)s1 (stereo not given) | -6.09 |
| c1ncn(CC2CN(Cc3nc(-c4ccsc4)no3)CCO2)n1 (stereo not given) | -6.98 |
| COc1cccc(CNC(=O)CCNS(=O)(=O)c2ccc(C)cc2)c1 | -3.42 |
| CCn1cnnc1CNC(=O)c1cc(F)ccc1OC | -6.76 |
| Cn1cc(CN2CC[C@@H]3[C@@H](CCC(=O)N3CC3CCNCC3)C2)cn1 | 1.94 |
| O=C(Cn1cc(-c2ccccc2)ncc1=O)Nc1ncc[nH]1 | -12.3 |
| Cn1nccc1-c1cncc(C2CCCN(S(C)(=O)=O)C2)n1 (stereo not given) | -7.56 |
| O=C(C1SCCc2sccc21)N1CCN(C2CC2)C(=O)C1 (stereo not given) | -5.13 |
| CN(Cc1ccc(Cl)c(F)c1)C(=O)c1ccncc1F | -6.79 |
| c1cnn(CC2CCCCN2Cc2nc(-c3ccsc3)no2)c1 (stereo not given) | -4.27 |
